Assay results taken from ChEMBL document CHEMBL4152382, “Discovery of Tarantula Venom-Derived NaV1.7-Inhibitory JzTx-V Peptide 5-Br-Trp24 Analogue AM-6120 with Systemic Block of Histamine-Induced Pruritis” (J Med Chem, 2018).

The molecules below were run against Sodium channel protein type 9 subunit alpha (Homo sapiens, UniProt Q15858) (assay: Inhibition of human Nav1.7 expressed in HEK293 cells at holding potential of -125 mV […] by patchxpress-based electrophysiology assay).
Assay type: cell-based

Sodium channel protein type 9 subunit alpha, sequence (Q15858 whole entry): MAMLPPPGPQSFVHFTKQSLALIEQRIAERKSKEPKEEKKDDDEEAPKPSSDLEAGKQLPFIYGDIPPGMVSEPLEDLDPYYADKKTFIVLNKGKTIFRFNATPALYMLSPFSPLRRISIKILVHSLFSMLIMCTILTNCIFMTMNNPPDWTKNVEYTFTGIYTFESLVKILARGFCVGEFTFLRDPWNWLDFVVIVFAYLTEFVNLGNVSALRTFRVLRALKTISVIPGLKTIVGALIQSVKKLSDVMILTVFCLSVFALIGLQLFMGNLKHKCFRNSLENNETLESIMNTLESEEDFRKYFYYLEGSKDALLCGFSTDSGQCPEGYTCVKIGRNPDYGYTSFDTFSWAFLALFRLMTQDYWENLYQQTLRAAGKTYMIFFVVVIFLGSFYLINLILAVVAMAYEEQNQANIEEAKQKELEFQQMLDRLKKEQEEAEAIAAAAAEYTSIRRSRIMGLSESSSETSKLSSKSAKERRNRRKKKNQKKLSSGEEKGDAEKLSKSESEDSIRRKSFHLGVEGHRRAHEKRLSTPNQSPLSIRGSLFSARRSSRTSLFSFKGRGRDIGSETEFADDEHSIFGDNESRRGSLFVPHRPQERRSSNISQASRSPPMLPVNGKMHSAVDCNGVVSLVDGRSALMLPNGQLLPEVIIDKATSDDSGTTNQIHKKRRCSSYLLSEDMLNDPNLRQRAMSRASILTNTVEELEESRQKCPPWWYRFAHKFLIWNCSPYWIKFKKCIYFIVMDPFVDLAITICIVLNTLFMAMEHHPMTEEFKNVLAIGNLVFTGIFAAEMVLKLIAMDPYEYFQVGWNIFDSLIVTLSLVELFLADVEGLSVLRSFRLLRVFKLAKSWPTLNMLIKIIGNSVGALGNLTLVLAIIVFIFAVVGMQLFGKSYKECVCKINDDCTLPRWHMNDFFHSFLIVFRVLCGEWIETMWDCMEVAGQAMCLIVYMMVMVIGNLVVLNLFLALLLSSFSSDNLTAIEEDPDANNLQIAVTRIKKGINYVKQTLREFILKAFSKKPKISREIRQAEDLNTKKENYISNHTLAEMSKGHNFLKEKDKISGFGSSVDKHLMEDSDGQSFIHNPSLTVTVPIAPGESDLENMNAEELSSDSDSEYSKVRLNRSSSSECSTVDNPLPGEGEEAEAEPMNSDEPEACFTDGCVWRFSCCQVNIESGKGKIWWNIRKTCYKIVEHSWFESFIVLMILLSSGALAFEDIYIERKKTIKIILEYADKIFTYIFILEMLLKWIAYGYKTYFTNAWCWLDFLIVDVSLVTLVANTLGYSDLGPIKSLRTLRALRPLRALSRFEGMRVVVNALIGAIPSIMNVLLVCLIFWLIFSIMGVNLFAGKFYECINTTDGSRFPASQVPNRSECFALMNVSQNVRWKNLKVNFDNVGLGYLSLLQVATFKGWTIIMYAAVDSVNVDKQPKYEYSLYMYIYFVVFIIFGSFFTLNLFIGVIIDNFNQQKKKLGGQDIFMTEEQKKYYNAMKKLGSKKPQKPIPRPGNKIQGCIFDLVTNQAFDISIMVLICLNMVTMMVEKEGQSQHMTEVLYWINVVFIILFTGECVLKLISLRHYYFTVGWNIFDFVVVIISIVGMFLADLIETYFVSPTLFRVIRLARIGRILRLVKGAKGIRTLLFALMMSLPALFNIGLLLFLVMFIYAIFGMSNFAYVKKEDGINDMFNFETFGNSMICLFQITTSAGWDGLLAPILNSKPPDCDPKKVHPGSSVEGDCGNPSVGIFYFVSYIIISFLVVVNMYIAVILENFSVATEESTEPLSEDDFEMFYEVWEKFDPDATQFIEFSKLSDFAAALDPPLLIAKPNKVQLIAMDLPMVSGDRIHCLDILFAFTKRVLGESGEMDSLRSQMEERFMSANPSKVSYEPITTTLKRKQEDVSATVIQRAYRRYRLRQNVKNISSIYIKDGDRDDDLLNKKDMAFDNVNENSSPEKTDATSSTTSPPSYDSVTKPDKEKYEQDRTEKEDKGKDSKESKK

SMILES | IC50
C#CC[C@H](N)C(=O)N[C@@H](Cc1ccc(O)cc1)C(=O)N[C@H]1CSSC[C@@H]2NC(=O)[C@@H]3CSSC[C@@H](C(=O)N[C@@H](CCCNC(=N)N)C(=O)N[C@@H](CCCCN)C(=O)N[C@@H](CCC(=O)O)C(=O)N[C@H](C(N)=O)[C@@H](C)CC)NC(=O)[C@H](Cc4c[nH]c5ccc(Br)cc45)NC(=O)[C@H](C4CCCCC4)NC(=O)[C@H](CCCCN)NC(=O)[C@H](CSSC[C@H](NC(=O)[C@H]([C@@H](C)O)NC(=O)[C@H](Cc4c[nH]c5ccccc45)NC(=O)[C@H](CCCC)NC(=O)[C@H](Cc4c[nH]c5ccccc45)NC(=O)[C@H](CCCCN)NC(=O)[C@H](CCC(N)=O)NC1=O)C(=O)N[C@@H](CC(=O)O)C(=O)N[C@@H](CO)C(=O)N[C@@H](CCCCN)C(=O)N[C@@H](CCCNC(=N)N)C(=O)N[C@@H](C)C(=O)N3)NC(=O)[C@H](CCCNC(=N)N)NC(=O)[C@H](CC(C)C)NC(=O)CNC(=O)[C@H](CCC(=O)O)NC2=O | 19.6 nM
C#CC[C@H](N)C(=O)N[C@@H](Cc1ccc(O)cc1)C(=O)N[C@H]1CSSC[C@@H]2NC(=O)[C@@H]3CSSC[C@@H](C(=O)N[C@@H](CCCNC(=N)N)C(=O)N[C@@H](CCCCN)C(=O)N[C@@H](CCC(=O)O)C(=O)N[C@H](C(N)=O)[C@@H](C)CC)NC(=O)[C@H](Cc4c[nH]c5ccccc45)NC(=O)[C@H](C4CCCCC4)NC(=O)[C@H](CCCCN)NC(=O)[C@H](CSSC[C@H](NC(=O)[C@H]([C@@H](C)O)NC(=O)[C@H](Cc4c[nH]c5ccccc45)NC(=O)[C@H](CCCC)NC(=O)[C@H](Cc4c[nH]c5ccccc45)NC(=O)[C@H](CCCCN)NC(=O)[C@H](CCC(N)=O)NC1=O)C(=O)N[C@@H](CC(=O)O)C(=O)N[C@@H](CO)C(=O)N[C@@H](CCCCN)C(=O)N[C@@H](CCCNC(=N)N)C(=O)N[C@@H](C)C(=O)N3)NC(=O)[C@H](CCCNC(=N)N)NC(=O)[C@H](CC(C)C)NC(=O)CNC(=O)[C@H](CCC(=O)O)NC2=O | 0.5 nM
C#CC[C@H](N)C(=O)N[C@@H](Cc1ccc(O)cc1)C(=O)N[C@H]1CSSC[C@@H]2NC(=O)[C@@H]3CSSC[C@@H](C(=O)N[C@@H](CCCNC(=N)N)C(=O)N[C@@H](CCCCN)C(=O)N[C@@H](CCC(=O)O)C(=O)N[C@H](C(N)=O)[C@@H](C)CC)NC(=O)[C@H](Cc4c[nH]c5ccccc45)NC(=O)[C@H](CC(C)C)NC(=O)[C@H](CCCCN)NC(=O)[C@H](CSSC[C@H](NC(=O)[C@H]([C@@H](C)O)NC(=O)[C@H](CCc4ccccc4)NC(=O)[C@H](CCCC)NC(=O)[C@H](Cc4c[nH]c5ccccc45)NC(=O)[C@H](CCCCN)NC(=O)[C@H](CCC(N)=O)NC1=O)C(=O)N[C@@H](CC(=O)O)C(=O)N[C@@H](CO)C(=O)N[C@@H](CCCCN)C(=O)N[C@@H](CCCNC(=N)N)C(=O)N[C@@H](C)C(=O)N3)NC(=O)[C@H](CCCNC(=N)N)NC(=O)[C@H](CC(C)C)NC(=O)CNC(=O)[C@H](CCC(=O)O)NC2=O | 6.8 nM
C#CC[C@H](N)C(=O)N[C@@H](Cc1ccc(O)cc1)C(=O)N[C@H]1CSSC[C@@H]2NC(=O)[C@@H]3CSSC[C@@H](C(=O)N[C@@H](CCCNC(=N)N)C(=O)N[C@@H](CCCCN)C(=O)N[C@@H](CCC(=O)O)C(=O)N[C@H](C(N)=O)[C@@H](C)CC)NC(=O)[C@H](Cc4ccccc4)NC(=O)[C@H](CC(C)C)NC(=O)[C@H](CCCCN)NC(=O)[C@H](CSSC[C@H](NC(=O)[C@H]([C@@H](C)O)NC(=O)[C@H](Cc4c[nH]c5ccccc45)NC(=O)[C@H](CCCC)NC(=O)[C@H](Cc4c[nH]c5ccccc45)NC(=O)[C@H](CCCCN)NC(=O)[C@H](CCC(N)=O)NC1=O)C(=O)N[C@@H](CC(=O)O)C(=O)N[C@@H](CO)C(=O)N[C@@H](CCCCN)C(=O)N[C@@H](CCCNC(=N)N)C(=O)N[C@@H](C)C(=O)N3)NC(=O)[C@H](CCCNC(=N)N)NC(=O)[C@H](CC(C)C)NC(=O)CNC(=O)[C@H](CCC(=O)O)NC2=O | 15 nM
C#CC[C@H](N)C(=O)N[C@@H](Cc1ccc(O)cc1)C(=O)N[C@H]1CSSC[C@@H]2NC(=O)[C@@H]3CSSC[C@@H](C(=O)N[C@@H](CCCNC(=N)N)C(=O)N[C@@H](CCCCN)C(=O)N[C@@H](CCC(=O)O)C(=O)N[C@H](C(N)=O)[C@@H](C)CC)NC(=O)[C@H](Cc4c[nH]c5c(Br)cccc45)NC(=O)[C@H](CC(C)C)NC(=O)[C@H](CCCCN)NC(=O)[C@H](CSSC[C@H](NC(=O)[C@H]([C@@H](C)O)NC(=O)[C@H](Cc4c[nH]c5ccccc45)NC(=O)[C@H](CCCC)NC(=O)[C@H](Cc4c[nH]c5ccccc45)NC(=O)[C@H](CCCCN)NC(=O)[C@H](CCC(N)=O)NC1=O)C(=O)N[C@@H](CC(=O)O)C(=O)N[C@@H](CO)C(=O)N[C@@H](CCCCN)C(=O)N[C@@H](CCCNC(=N)N)C(=O)N[C@@H](C)C(=O)N3)NC(=O)[C@H](CCCNC(=N)N)NC(=O)[C@H](CC(C)C)NC(=O)CNC(=O)[C@H](CCC(=O)O)NC2=O | 24 nM
C#CC[C@H](NC(=O)[C@@H](N)CCC(=O)O)C(=O)N[C@H]1CSSC[C@@H]2NC(=O)[C@@H]3CSSC[C@@H](C(=O)N[C@@H](CCCNC(=N)N)C(=O)N[C@@H](CCCCN)C(=O)N[C@@H](CCC(=O)O)C(=O)N[C@H](C(N)=O)[C@@H](C)CC)NC(=O)[C@H](Cc4c[nH]c5ccc(Br)cc45)NC(=O)[C@H](CC(C)C)NC(=O)[C@H](CCCCN)NC(=O)[C@H](CSSC[C@H](NC(=O)[C@H]([C@@H](C)O)NC(=O)[C@H](Cc4c[nH]c5ccccc45)NC(=O)[C@H](CCCC)NC(=O)[C@H](Cc4c[nH]c5ccccc45)NC(=O)[C@H](CCCCN)NC(=O)[C@H](CCC(N)=O)NC1=O)C(=O)N[C@@H](CC(=O)O)C(=O)N[C@@H](CO)C(=O)N[C@@H](CCCCN)C(=O)N[C@@H](CCCNC(=N)N)C(=O)N[C@@H](C)C(=O)N3)NC(=O)[C@H](CCCNC(=N)N)NC(=O)[C@H](CC(C)C)NC(=O)CNC(=O)[C@H](CCC(=O)O)NC2=O | 0.3 nM
C#CC[C@H](N)C(=O)N[C@@H](Cc1ccc(O)cc1)C(=O)N[C@H]1CSSC[C@@H]2NC(=O)[C@@H]3CSSC[C@@H](C(=O)N[C@@H](CCCNC(=N)N)C(=O)N[C@@H](CCCCN)C(=O)N[C@@H](CCC(=O)O)C(=O)N[C@@H](Cc4ccccc4)C(N)=O)NC(=O)[C@H](Cc4c[nH]c5ccc(Br)cc45)NC(=O)[C@H](CC(C)C)NC(=O)[C@H](CCCCN)NC(=O)[C@H](CSSC[C@H](NC(=O)[C@H]([C@@H](C)O)NC(=O)[C@H](Cc4c[nH]c5ccccc45)NC(=O)[C@H](CCCC)NC(=O)[C@H](Cc4c[nH]c5ccccc45)NC(=O)[C@H](CCCCN)NC(=O)[C@H](CCC(N)=O)NC1=O)C(=O)N[C@@H](CC(=O)O)C(=O)N[C@@H](CO)C(=O)N[C@@H](CCCCN)C(=O)N[C@@H](CCCNC(=N)N)C(=O)N[C@@H](C)C(=O)N3)NC(=O)[C@H](CCCNC(=N)N)NC(=O)[C@H](CC(C)C)NC(=O)CNC(=O)[C@H](CCC(=O)O)NC2=O | 1.1 nM
C#CC[C@H](N)C(=O)N[C@@H](Cc1ccc(O)cc1)C(=O)N[C@H]1CSSC[C@@H]2NC(=O)[C@@H]3CSSC[C@@H](C(=O)N[C@@H](CCCNC(=N)N)C(=O)N[C@@H](CCCCN)C(=O)N[C@@H](CCC(=O)O)C(=O)N[C@H](C(N)=O)[C@@H](C)CC)NC(=O)[C@H](Cc4c[nH]c5ccccc45)NC(=O)[C@H](CCCC)NC(=O)[C@H](CCCCN)NC(=O)[C@H](CSSC[C@H](NC(=O)[C@H]([C@@H](C)O)NC(=O)[C@H](Cc4c[nH]c5ccccc45)NC(=O)[C@H](CCCC)NC(=O)[C@H](Cc4c[nH]c5ccccc45)NC(=O)[C@H](CCCCN)NC(=O)[C@H](CCC(N)=O)NC1=O)C(=O)N[C@@H](CC(=O)O)C(=O)N[C@@H](CO)C(=O)N[C@@H](CCCCN)C(=O)N[C@@H](CCCNC(=N)N)C(=O)N[C@@H](C)C(=O)N3)NC(=O)[C@H](CCCNC(=N)N)NC(=O)[C@H](CC(C)C)NC(=O)CNC(=O)[C@H](CCC(=O)O)NC2=O | 1.7 nM
C#CC[C@H](N)C(=O)N[C@@H](Cc1ccc(O)cc1)C(=O)N[C@H]1CSSC[C@@H]2NC(=O)[C@@H]3CSSC[C@@H](C(=O)N[C@@H](CCCNC(=N)N)C(=O)N[C@@H](CCCCN)C(=O)N[C@@H](CCC(=O)O)C(=O)N[C@@H](CCc4ccccc4)C(N)=O)NC(=O)[C@H](Cc4c[nH]c5ccc(Br)cc45)NC(=O)[C@H](CC(C)C)NC(=O)[C@H](CCCCN)NC(=O)[C@H](CSSC[C@H](NC(=O)[C@H]([C@@H](C)O)NC(=O)[C@H](Cc4c[nH]c5ccccc45)NC(=O)[C@H](CCCC)NC(=O)[C@H](Cc4c[nH]c5ccccc45)NC(=O)[C@H](CCCCN)NC(=O)[C@H](CCC(N)=O)NC1=O)C(=O)N[C@@H](CC(=O)O)C(=O)N[C@@H](CO)C(=O)N[C@@H](CCCCN)C(=O)N[C@@H](CCCNC(=N)N)C(=O)N[C@@H](C)C(=O)N3)NC(=O)[C@H](CCCNC(=N)N)NC(=O)[C@H](CC(C)C)NC(=O)CNC(=O)[C@H](CCC(=O)O)NC2=O | 1.1 nM
C#CC[C@H](N)C(=O)N[C@@H](Cc1ccc(O)cc1)C(=O)N[C@H]1CSSC[C@@H]2NC(=O)[C@@H]3CSSC[C@@H](C(=O)N[C@@H](CCCNC(=N)N)C(=O)N[C@@H](CCCCN)C(=O)N[C@@H](CCC(=O)O)C(=O)N[C@H](C(N)=O)[C@@H](C)CC)NC(=O)[C@H](CCc4ccccc4)NC(=O)[C@H](CC(C)C)NC(=O)[C@H](CCCCN)NC(=O)[C@H](CSSC[C@H](NC(=O)[C@H]([C@@H](C)O)NC(=O)[C@H](Cc4c[nH]c5ccccc45)NC(=O)[C@H](CCCC)NC(=O)[C@H](Cc4c[nH]c5ccccc45)NC(=O)[C@H](CCCCN)NC(=O)[C@H](CCC(N)=O)NC1=O)C(=O)N[C@@H](CC(=O)O)C(=O)N[C@@H](CO)C(=O)N[C@@H](CCCCN)C(=O)N[C@@H](CCCNC(=N)N)C(=O)N[C@@H](C)C(=O)N3)NC(=O)[C@H](CCCNC(=N)N)NC(=O)[C@H](CC(C)C)NC(=O)CNC(=O)[C@H](CCC(=O)O)NC2=O | > 1000 nM
C#CC[C@H](NC(=O)[C@@H](N)CCCCN)C(=O)N[C@H]1CSSC[C@@H]2NC(=O)[C@@H]3CSSC[C@@H](C(=O)N[C@@H](CCCNC(=N)N)C(=O)N[C@@H](CCCCN)C(=O)N[C@@H](CCC(=O)O)C(=O)N[C@H](C(N)=O)[C@@H](C)CC)NC(=O)[C@H](Cc4c[nH]c5ccc(Br)cc45)NC(=O)[C@H](CC(C)C)NC(=O)[C@H](CCCCN)NC(=O)[C@H](CSSC[C@H](NC(=O)[C@H]([C@@H](C)O)NC(=O)[C@H](Cc4c[nH]c5ccccc45)NC(=O)[C@H](CCCC)NC(=O)[C@H](Cc4c[nH]c5ccccc45)NC(=O)[C@H](CCCCN)NC(=O)[C@H](CCC(N)=O)NC1=O)C(=O)N[C@@H](CC(=O)O)C(=O)N[C@@H](CO)C(=O)N[C@@H](CCCCN)C(=O)N[C@@H](CCCNC(=N)N)C(=O)N[C@@H](C)C(=O)N3)NC(=O)[C@H](CCCNC(=N)N)NC(=O)[C@H](CC(C)C)NC(=O)CNC(=O)[C@H](CCC(=O)O)NC2=O | 5.7 nM
